Measurements reported in patent US9279812B2, “Neuregulin-1-based prognosis and therapeutic stratification of colorectal cancer” (UNIVERSITEIT GENT, priority 2011, dated 2016).
Blank lines part the entries; values can stand above or below the molecule they belong to.

Columns and labels:
[1] = target: HER3 (human) (UniProt P21860); assay: cell-based or functional assay
[2] = system: HCT-8/E11 cells; assay: Single cell collagen invasion assay, HCT-8/E11; type: cell-based, human; conditions: for CM^BM-MSC-induced invasion (invasion index) / CM^BM-MSC-induced morphological response (factor shape): cetuximab 3 μM, lapatinib 1 μM, trastuzumab and pertuzumab 25 μg/ml
Description: (§1) Collagen invasion assays were performed as described previously (45). Briefly, 1×10^5 CRC cells were seeded on type I collagen-coated 6-well plates and treated with CM derived from 5×10^5 BM-MSC or T-MC supplemented with DMEM 10% FBS and antibiotics as indicated.
(§2) Morphology and invasion into collagen was analysed after 24 hours and quantified by means of the factor shape ([perimeter]^2/[4πarea]) and invasion index. The number of invasive and noninvasive cells was counted in 10 randomly selected microscopic fields with a 20× objective and 10× eye piece by two blinded observers using an inverted phase-contrast microscope (DMI 3000B; Leica, Wetzlar, Germany). The invasion index was calculated as the ratio of the number of cells that invaded the gel divided by the total number of cells counted in each field. Collagen matrices were fixed in 3% paraformaldehyde for 10 minutes and phalloidin-TRITC (Sigma-Aldrich) staining as described (45). Cells were imaged with a Zeiss 510 META confocal laser-scanning microscope (Carl Zeiss, Micro-imaging Inc., Heidelberg, Germany) using a 488 argon and a 543 HeNe laser. Images were acquired using a Plan Apochromat 63×/1.4 oil DIC or a Plan Apochromat 100×/1.4 oil DIC objective. All the images shown are collapsed z-stacks.

[3] = system: AKT; assay: Western blot of S473 p-AKT (AKT activation) in HCT-8/E11 cells; type: cell-based, human; conditions: for reduction of AKT activation (S473 p-AKT) in CM^BM-MSC-treated cells: HCT-8/E11, CM^BM-MSC 15 minutes, cetuximab 3 μM, lapatinib 1 μM, trastuzumab and pertuzumab 25 μg/ml
Description: (§3) Cells were harvested with Laemmli lysis buffer (0.125M Tris-HCl (pH=6.8), 10% glycerol, 2.3% sodium dodecyl sulfate [SDS]). Cell surface proteins were isolated by biotinylation (Pierce). For the detection of phosphorylated proteins, cells were grown at 70% confluence and treated for 15 minutes as indicated. Cells were harvested with NP-40 lysis buffer (1% Nonidet P-40 [NP-40][Sigma-Aldrich], 1% Triton X-100 [Bio-Rad] in phosphate-buffered saline [PBS]) and the following protease inhibitors: aprotinin (10 μg/mL), leupeptin (10 μg/mL) (ICN Biomedicals, Costa Mesa, Calif.), phenylmethylsulfonyl fluoride (1.72 mM), NaF (100 mM), NaVO3 (500 mM), and Na4P2O7 ([…]) (Sigma-Aldrich). Cell lysates (25 μg) and CM (20 μl) were suspended in Laemmli sample buffer and boiled for 5 minutes at 95° C. For immunoprecipitation, cells were harvested with NP-40 lysis buffer, and protease inhibitors. Anti-rabbit antibodies were covalently coupled to sheep anti-rabbit IgG dynabeads (Invitrogen) and then incubated for 2 hours at 4° C. with 500 μg of cell lysate or normal rabbit IgG antibody (R&D Systems) as a negative control. Immunoprecipitates were washed five times with lysis buffer, eluted with 100 μl of Laemmli lysis buffer, and boiled at 95° C. for 5 minutes. Samples were run on NuPAGE 4%-20% Bis-Tris gradient gels (Invitrogen), transferred to polyvinylidene fluoride membranes, blocked in 5% nonfat milk in PBS or 4% bovine serum albumin (BSA) in PBS for phosphorylated proteins with 0.5% Tween-20, and immunostained. Scanning densitometry was carried out with the Quantity One Program (Bio-Rad).

[4] = system: HER3; assay: Western blot of Y1289 p-HER3 (HER3 activation) in HCT-8/E11 cells; type: cell-based, human; conditions: for decrease in CM^BM-MSC-induced HER3 activation (Y1289 p-HER3): HCT-8/E11, CM^BM-MSC 15 minutes, cetuximab 3 μM, lapatinib 1 μM, trastuzumab and pertuzumab 25 μg/ml
Description: as §3

[5] = system: HCT-8/E11 cells; assay: Assessment of cell numbers (viable cells, serum-free); type: cell-based, human
Description: To assess the effect of rNRG-β1 or CM on cell numbers, a total of 9 wells of seeded cells were counted for each condition (triplicate samples×3 countings). First, 1×10^4 CRC cells were seeded on a 6-well plate in DMEM supplemented with 10% FCS. After 24 hours, cells were treated as indicated under serum-free conditions; medium was changed every 3 days. The total number of viable cells in each well was counted with a Countess automated cell counter (Invitrogen) every three days for 9 days; trypan blue staining was used for exclusion of dead cells.

[6] = system: HCT-8/E11+BM-MSC xenografts; assay: s.c. xenografts of HCT-8/E11 cells with BM-MSC in Swiss nu/nu mice; type: in vivo
Description: Animal studies were approved by the Local Ethical Committee for Animal Experiments, Faculty of Medicine and Health Sciences, Ghent University, Belgium. Four-week-old female Swiss nu/nu mice (10 animals per group) (Charles River Laboratories, Brussels, Belgium) were inoculated subcutaneously (s.c.) with 10^6 CRC cells (HCT-8/E11, SW480 and HCT 116) either alone or combined with 2×10^6 BM-MSC suspended in 100 μl sterile PBS. To assess the effect of soluble factors on tumorigenesis, mice were inoculated s.c. with 10^6 cancer cells in 100 μl sterile CM derived from 2.5×10^6 BM-MSC, or control medium. For these experiments, intratumoral injection of the CM (50 μl) was performed every three days. […] Tumor volume was estimated by using the equation, V=0.4×a×b^2, where V is the volume, a is the length of the major axis of the tumor, and b is the length of its minor axis. he animals were sacrificed when the tumors were approximately 1-1.5 cm^3, in compliance with regulations for the use of vertebrate animals in research. Primary tumors were extracted, weighted and fixed in 4% buffered formol for 12 hours, followed by a wash with PBS. Fixed tumors were transferred to 70% ethanol until use. Tumors were embedded in paraffin, sectioned and stained with H&E. Immunohistochemistry (IHC) using TUNEL, anti-α-SMA (Biogenex), anti-vimentin and anti-Ki67 antibodies was performed on paraffin sections, using a NexES automated slide staining system (Ventana Medical Systems, Tucson, Ariz.). Cell proliferation (Ki67 positivity) was quantified as % of positive cancer cells per high power field averaged across 12 images from 2 primary tumors per cell line.

[7] = system: BAX/BCL-2; assay: Western blot of BAX and BCL-2 expression in HCT-8/E11; type: cell-based, human; conditions: HCT-8/E11, 10 ng/ml, 6 hours
Description: as §3, with “Samples were run on NuPAGE 4%-20% Bis-Tris gradient gels (Invitrogen), transferred to polyvinylidene fluoride membranes, blocked in 5% nonfat milk in PBS or 4% bovine serum albumin (BSA) in PBS for phosphorylated proteins with 0.5% Tween-20, and immunostained.” left out

[8] = system: HCT 116 cells; assay: Single cell collagen invasion assay, HCT 116; type: cell-based, human; conditions: HCT 116, 10 ng/ml, 24 hours, P=0.007
Description: as §1, §2

[9] = system: HER2; assay: Western blot of Y1196 and Y1248 p-HER2 in HCT-8/E11; type: cell-based, human; conditions: 10 ng/ml, 15 minutes
Description: as §3, with “Samples were run on NuPAGE 4%-20% Bis-Tris gradient gels (Invitrogen), transferred to polyvinylidene fluoride membranes, blocked in 5% nonfat milk in PBS or 4% bovine serum albumin (BSA) in PBS for phosphorylated proteins with 0.5% Tween-20, and immunostained.” left out

[10] = system: PARP; assay: Western blot of PARP cleavage in HCT 116; type: cell-based, human; conditions: HCT 116, 10 ng/ml, 6 hours, compared to controls
Description: as §3, with “Samples were run on NuPAGE 4%-20% Bis-Tris gradient gels (Invitrogen), transferred to polyvinylidene fluoride membranes, blocked in 5% nonfat milk in PBS or 4% bovine serum albumin (BSA) in PBS for phosphorylated proteins with 0.5% Tween-20, and immunostained.” left out

[11] = system: SW480 cells; assay: Single cell collagen invasion assay, SW480; type: cell-based, human; conditions: SW480, 10 ng/ml, 24 hours, P=0.003
Description: as §1, §2

[12] = system: BAD; assay: Western blot of S136 p-BAD in HCT-8/E11; type: cell-based, human; conditions: rNRG-β1-treated HCT-8/E11
Description: as §3, with “Samples were run on NuPAGE 4%-20% Bis-Tris gradient gels (Invitrogen), transferred to polyvinylidene fluoride membranes, blocked in 5% nonfat milk in PBS or 4% bovine serum albumin (BSA) in PBS for phosphorylated proteins with 0.5% Tween-20, and immunostained.” left out

Y1289 p-HER3 in HCT-8/E11 cells, Western blot, 15 minutes [1]: 0.25 ng/mL
Molecule: Recombinant human NRG-β1 EGF domain (from UniProt Q02297 177-241) (ligand)

Molecule: CS(=O)(=O)CCNCc1ccc(-c2ccc3ncnc(Nc4ccc(OCc5cccc(F)c5)c(Cl)c4)c3c2)o1 [lapatinib]
CM^BM-MSC-induced invasion (invasion index) [2]: blocked
CM^BM-MSC-induced morphological response (factor shape) [2]: blocked
reduction of AKT activation (S473 p-AKT) in CM^BM-MSC-treated cells [3]: 82%
decrease in CM^BM-MSC-induced HER3 activation (Y1289 p-HER3) [4]: 72%

Molecule: pertuzumab: recombinant, humanized mAb that specifically binds HER2 and prevents HER2 homo- and HER2/HER3 heterodimerisation
CM^T-MC-increased invasion ([2]; HCT-8/E11, 24 hours, pertuzumab 25 μg/ml): partly inhibited
CM^BM-MSC-induced invasion (invasion index) [2]: blocked
CM^BM-MSC-induced morphological response (factor shape) [2]: blocked
CM^BM-MSC-induced CRC cell survival (total number of viable cells) ([5]; pertuzumab 25 μg/ml, HCT-8/E11): significantly decreased
number of viable cells under control conditions ([5]; pertuzumab 25 μg/ml, no CM): no statistically significant effect
CM^T-MC-increased growth of HCT-8/E11 cells (trophic effect) ([5]; pertuzumab 25 μg/ml, serum-free): blocked
reduction of AKT activation (S473 p-AKT) in CM^BM-MSC-treated cells [3]: 79%
decrease in CM^BM-MSC-induced HER3 activation (Y1289 p-HER3) [4]: 67%
BM-MSC-enhanced tumorigenesis of HCT-8/E11 cells ([6]; 600 μg/mouse i.p.): significantly delayed
tumor weight ([6]; 600 μg/mouse i.p. three times a week, P=0.004): decreased
tumor volume ([6]; 600 μg/mouse i.p. three times a week, P=0.035): reduced
Ki67 proliferation index, difference vehicle vs treatment ([6]; 95% CI −4.8 to 15.2, P=0.276): 5.2
Ki67 proliferation index ([6]; viable areas of resected xenografts): did not significantly affect

Molecule: Cn1ncc(Cl)c1-c1cc(C(=O)N[C@H](CN)Cc2ccc(F)c(F)c2)oc1Cl [GSK2141795]
CM^BM-MSC-induced invasion ([2]; 0.1 μM, 24 hours): able to block
CM^BM-MSC-induced invasion ([2]; 1 μM, 24 hours): able to block

B1: rNRG-β1: Recombinant human NRG-β1 EGF domain supplied by R&D Systems (protein)
chain: SHLVKCAEKEKTFCVNGGECFMVKDLSNPSRYLCKCPNEFTGDRCQNYVMASFYKHLGIEFMEAE
BAX/BCL-2 ratio [7]: reduced
morphological changes and invasion into a collagen matrix ([2]; HCT-8/E11, 10 ng/ml, 24 hours, P=0.049): induced
HCT-8/E11 cell number ([5]; 0.1, 1, 10 ng/ml, serum-free, P=0.002 at 10 ng/ml): dose-dependent increase
levels of S473 p-AKT ([3]; rNRG-β1-treated HCT-8/E11): higher levels
morphological changes and invasion into a collagen matrix [8]: induced
concentration at which phosphorylation of HER3 was significant ([4]; HCT-8/E11, 15 minutes): 0.25 ng/mL
HER2 activation [9]: induced HER2 activation
PARP cleavage [10]: reduced
morphological changes and invasion into a collagen matrix [11]: induced
levels of S136 p-BAD [12]: higher levels
